Common to all, as to format: cell-based, human
Data set [1] relates to MDA-MB-231 cells. Nature of the data set: ApoTox-Glo triplex assay (caspase 3/7). The following applies: MDA-MB-231, 24 h, various concentrations. The source says: The ApoTox-Glo® triplex assay was utilized to further evaluate the effect of compound 9 on the MDA-MB-231 cancer cell viability, cytotoxicity, and apoptosis. This assay employs a luminogenic peptide substrate for caspase 3/7 to measure caspase activity, which is used as a marker for apoptosis within the cells. […] However, since this assay was time-dependent, the level of cytotoxicity (Figure 7B) determined, in this case, was not a true representative of the compound’s cytotoxic potential; it is reasonable to say that at the endpoint of apoptosis (Figure 7C), a heightened level of cytotoxicity would be observed.
The Promega ApoTox-Glo® triplex assay was conducted as described by the manufacturer. Briefly, the cells were incubated at 37 °C for 12 h and then treated for 24 h with various concentrations of compound 9 [29, 30]. Next, 100 µL of the Viability and Cytotoxicity Reagent was added to each well and briefly mixed on an orbital shaker. Plates were incubated at 37 °C for 30 min, and the fluorescence was measured at the following two-wavelength sets—400Ex/505Em (Viability) and 485Ex/520 Em (Cytotoxicity)—using the Envision plate reader (Perkin Elmer). […] Finally, to determine the level of apoptosis, the luminescence associated with caspase 3/7 activation was measured using an Envision plate reader (Perkin Elmer).

For data set [2], the system named is HL60 cells. Nature of the data set: High-content imaging (HCI) cell health / apoptosis assay. The following applies: for viability at 31.25 µM / viability at 62.5 µM / viability at 125 µM: Homo sapiens, HL-60, HCI Cell Health, read-out: HL60 Cell Line % Cell Viability; for viability at 31.25 µM / viability at 62.5 µM / viability at 125 µM / apoptosis in HL60 cells (HCI): 48 h; for apoptosis in HL60 cells (HCI): increasing concentrations 31.25-125 µM, compared with control. As to the method:
Figure 5A depicts a dose-dependent increase in cell shrinkage/condensing, and necrotic cells are also visible. […] Furthermore, even at the lowest concentration, 31.25 µM, compound 9 was more efficacious than compound 8 since there appeared to be fewer healthy cells (blue and green staining) and a greater level of shrinkage. Moreover, Figure 5B depicts the HCI Cell Health determined by means of digital analysis, displaying the HL60 percentage cell viability as a function of increasing drug concentrations.
Figure 5 HCI-based apoptosis assay. (A) HL60 cells were treated with three concentrations (31.25 µM, 62.5 µM, and 125 µM) of compounds # 8 (a–c), # 9 (d–f), and PBS for the negative control (g) for 48 h. The nucleus (blue) was stained with HOECHST 33342, the cytoplasm (Green) was stained with Calcein AM, and dead cells (Red) were stained with Propidium Iodide (PI). […] (B) HCI Cell Health Digital Analysis MetaXpress software generated the graph quantifying the cell viability, seen in B, as a percentage of HL60 cells treated with the compounds. […] TEXT PRINTED IN THE PICTURE: (B) Compound # 8: HL60 Cell Line % Cell Viability: 64.5 (125μM); HL60 Cell Line % Cell Viability: 87.4 (62.5μM); HL60 Cell Line % Cell Viability: 94.6 (31.25μM) | (B) Compound # 9: HL60 Cell Line % Cell Viability: 45.7 (125μM); HL60 Cell Line % Cell Viability: 56.9 (62.5μM); HL60 Cell Line % Cell Viability: 79.9 (31.25μM) | (B) Control: HL60 Cell Line % Cell Viability: 98.5
HL60 cells were seeded in a 96-well plate at a density of 20,000 cells per well. The cells were treated with compounds 8 and 9 and negative control (PBS) for 48 h. Three graded concentrations were used for the treatment, 31.25 µM, 62.5 µM, and 125 µM. After the treatment, the cells were stained with Calcein AM (2 µg/mL), HOECHST33342 (2.5 µg/mL), and Propidium Iodide (2.5 µg/mL) for 45 min at 37 °C and 5% CO2. Plates were imaged on a Molecular Devices ImageXpress® Microsystem, and the acquired image data were analyzed using MetaXpress® software, Molecular Devices, Downingtown, PA, USA. The Cell Health module available in the MetaXpress software was used to measure the percentage viability of live and dead cells. Experiments were performed in triplicates.

Data set [3] concerns tubulin in MDA-MB-231 cells. In words: Tubulin staining and imaging (microtubular network). The following applies: 48 h; for effect on the microtubular network / tubulin: MDA-MB-231, 15.6 and 31 µM. The source says: An established cytotoxic mechanism of action of some nitrogenous heteroaromatic compounds is through the inhibition of tubulin. Normal microtubule function is essential during mitosis for mitotic spindle formation to allow chromatid separation, without which cell replication would cease. In addition, microtubules are critical for maintaining the cytoskeletal integrity of normal cells. Currently used cytotoxic anti-neoplastic classes of drugs such as the taxanes and vinca alkaloids also either inhibit microtubule assembly or disassembly, thus preventing mitosis from occurring. Therefore, we investigated the effects of compounds 8 and 9 on the modulation of microtubule function by assessing their effect on tubulin.
MDA- MB 231 cells were treated with compounds 8 and 9 at two concentrations, 15.6 and 31.25 µM, for 48 h. The cells were stained with tubulin tracker™ Green (Cat #T34075) in HBSS for 30 min and nucleus stain HOECHST33342 (blue) for 5 min. The samples were imaged with Zeiss laser-scanning 780 microscopes.
Following the standard protocol, tubulin and microtubule-associated proteins (MAPs) were developed, accompanied by two cycles of polymerization and depolymerization. MDA-MB231 cells were treated with compounds 8 and 9 at concentrations of 31.25 and 15.6 µM for 48 h. Subsequently, the media was replaced with HBSS, and the MDA-MB231 cells were stained with tubulin tracker™ Green 51(Cat #T34075) for 30 min and HOECHST33342 for 5 min. The Zeiss laser-scanning 780 microscope was used for imaging.

As a reminder, the viability is a read-out of living cells in per cent, often relative to untreated cells. Turning to `COc1cccc(/C=C2\N=C(c3ccccc3)N(Nc3ccc([N+](=O)[O-])cc3[N+](=O)[O-])C2=O)c1` [Compound 9], in data set [1], the “caspase 3/7-mediated apoptosis” value was “induced caspase 3-/7-mediated apoptosis in a dose-dependent manner”. In addition, the cytotoxic efficacy result in data set [2] (31.25 µM, HL60, 48 h) is recorded as “approximately 20%”. In data set [2] (62.5 µM, HL60, 48 h), the cytotoxicity entry was “approximately 54%”. Moreover, in data set [2], the viability at 31.25 µM was determined as 79.9%, the viability at 62.5 µM was 56.9%, the viability at 125 µM was 45.7% and the “apoptosis in HL60 cells (HCI)” value is listed as “led to apoptosis”. Besides, the microtubule inhibition result in data set [3] (MDA-MB-231, 31 µM) is given as “nearly complete microtubule inhibition”. The “effect on the microtubular network / tubulin” value in data set [3] was “interfered with the microtubular network”.
`O=C1/C(=C/c2ccccc2)N=C(c2ccccc2)N1Nc1ccc([N+](=O)[O-])cc1[N+](=O)[O-]` [Compound 8]: in data set [2], the viability at 31.25 µM worked out at 94.6%, the viability at 62.5 µM turned out to be 87.4%, the viability at 125 µM stood at 64.5% and the “apoptosis in HL60 cells (HCI)” value is reported as “led to apoptosis”. In addition, the “effect on the microtubular network / tubulin” value in data set [3] is listed as “no effect on tubulin”.
